In test [1] the test system is dSPNs. Put plainly: Patch-clamp recording of LTP induction in striatal slices from 6-OHDA lesioned animals. Also noted: species or system Mouse. The note with it: shortly after the last injection of L-DOPA (ON-state). The method, then:
(§1) Mice were deeply anesthetized intraperitoneally with a mixture of ketamine and xylazine. Parasagittal slices were cut in ice-cold aCSF. Whole-cell and perforated-patch recordings were performed in the dorsolateral striatum at 30-31° C. […] These protocols consisted of 20-60 trains of five bursts repeated at 0.1 Hz, with each burst composed of three APs preceded with three EPSPs at 50 Hz (pre-post timing pairing, +5 ms) or three APs followed by one EPSP (post-pre timing pairing, −10 ms). To ensure induction of consistent synaptic plasticity, postsynaptic neurons were depolarized to −70 mV from their typical resting membrane potentials (−85 mV) during their induction. GABAA was blocked by the bath application of gabazine (10 μM).
(§2) Data analysis was conducted with Igor Pro 6 and Clampfit 9. EPSP amplitude was calculated from 50 sweeps immediately before the start of induction and 20-30 min after the end of induction. Compiled data were expressed as mean±SEM. Statistical tests were performed using Excel and SigmaStat. Nonparametric Mann-Whitney or Wilcoxon tests were used to assess the experiment results, using a probability threshold of 0.05. Statistical analyses for behavioral data were carried out using Prism 6. Data were analyzed using parametric repeated measure two-way ANOVA followed by post hoc Bonferroni's test.

For test [2], the system named is iSPNs. Put plainly: Patch-clamp recording of LTD induction in striatal slices from 6-OHDA lesioned animals. Further details: species or system Mouse. The note with it: dyskinetic ON-state after L-DOPA. Here is the method:
as §1, §2

For test [3], the system named is unilateral 6-OHDA lesioned mice (L-DOPA-induced dyskinesia). Put plainly: Mouse unilateral 6-OHDA model and LID, abnormal involuntary movements (AIMs) scoring. The class given is in vivo. Here is the method: Mouse Unilateral 6-Hydroxydopamine (6-OHDA) Model and LID
Mice were anaesthetized with an isoflurane precision vaporizer, placed in a stereotaxic frame, and a hole was drilled over the medial forebrain bundle. After exposing the skull, 3.5 mg ml^−1 free base 6-OHDA with 0.02% ascorbic acid was injected using a glass micropipette. Three weeks after surgery, the degree of damage to nigrostriatal DA neurons was assessed with a forelimb-use asymmetry test. Striatal sections from a subset of mice were stained with tyrosine hydroxylase to verify successful lesion. One day after the test, mice underwent behavioral testing for abnormal involuntary movements (AIMs) following L-DOPA treatment. Treatment with L-DOPA was given daily for 15 days at the doses of 3 mg kg^−1. Animals were randomly allocated to receive treatment with L-DOPA and vehicle, or L-DOPA and an A2a receptor antagonist.
Data analysis was conducted with Igor Pro 6 and Clampfit 9. EPSP amplitude was calculated from 50 sweeps immediately before the start of induction and 20-30 min after the end of induction. Compiled data were expressed as mean±SEM. Statistical tests were performed using Excel and SigmaStat. […] Data were analyzed using parametric repeated measure two-way ANOVA followed by post hoc Bonferroni's test.

The structures appear in SMILES notation. “Also recorded” adds a separate entry of the source.

From patent publication US11246871B2, “Targeting adenosine A2A receptors for the treatment of levodopa-induced dyskinesias” (Northwestern University, priority 2016, dated 2022) come the findings set out here.

`N[C@@H](Cc1ccc(O)c(O)c1)C(=O)O` [L-DOPA, L-3,4-dihydroxyphenylalanine]: the “LTP induction in dSPNs” value in test [1] is on record as “LTP was recovered in dSPNs; also recorded: restores LTP in dSPNs”. Further, in test [2], the “LTD induction in iSPNs” value was “LTD was recovered; also recorded: LTD in iSPNs”.

For `COc1ccc(N2CCOCC2)c2sc(NC(=O)N3CCC(C)(O)CC3)nc12` [tozadenant], the “development of LID behaviors” value in test [3] (systemic tozadenant 30 mg/kg 5 hours after L-DOPA doses, L-DOPA 3 mg/kg daily for 15 days, vs L-DOPA+vehicle, p<0.05) is listed as “reduces the development of LID behaviors”. For the same molecule, in test [3] (treated in the LID OFF-state), the “LID scores induced by subsequent doses of L-DOPA (ON-state)” value is reported as “significantly attenuates LID scores”.
